Reference: ChEMBL document CHEMBL4507259 (2021)

How the values were obtained:
[1] = molecular target: Substance-P receptor (Homo sapiens) (UniProt P25103); test: NK1 (h) CEREP ligand profiling; conditions: filed as agonist, Compound concentration 10.0 uM
[2] = molecular target: Mitogen-activated protein kinase 11 (Homo sapiens) (UniProt Q15759); conditions: Compound concentration 1000.0 nM
[3] = molecular target: Androgen receptor (Homo sapiens) (UniProt P10275); test: AR (h) CEREP ligand profiling; conditions: filed as agonist, Compound concentration 10.0 uM
Sequence of Androgen receptor (Homo sapiens) (P10275 whole entry): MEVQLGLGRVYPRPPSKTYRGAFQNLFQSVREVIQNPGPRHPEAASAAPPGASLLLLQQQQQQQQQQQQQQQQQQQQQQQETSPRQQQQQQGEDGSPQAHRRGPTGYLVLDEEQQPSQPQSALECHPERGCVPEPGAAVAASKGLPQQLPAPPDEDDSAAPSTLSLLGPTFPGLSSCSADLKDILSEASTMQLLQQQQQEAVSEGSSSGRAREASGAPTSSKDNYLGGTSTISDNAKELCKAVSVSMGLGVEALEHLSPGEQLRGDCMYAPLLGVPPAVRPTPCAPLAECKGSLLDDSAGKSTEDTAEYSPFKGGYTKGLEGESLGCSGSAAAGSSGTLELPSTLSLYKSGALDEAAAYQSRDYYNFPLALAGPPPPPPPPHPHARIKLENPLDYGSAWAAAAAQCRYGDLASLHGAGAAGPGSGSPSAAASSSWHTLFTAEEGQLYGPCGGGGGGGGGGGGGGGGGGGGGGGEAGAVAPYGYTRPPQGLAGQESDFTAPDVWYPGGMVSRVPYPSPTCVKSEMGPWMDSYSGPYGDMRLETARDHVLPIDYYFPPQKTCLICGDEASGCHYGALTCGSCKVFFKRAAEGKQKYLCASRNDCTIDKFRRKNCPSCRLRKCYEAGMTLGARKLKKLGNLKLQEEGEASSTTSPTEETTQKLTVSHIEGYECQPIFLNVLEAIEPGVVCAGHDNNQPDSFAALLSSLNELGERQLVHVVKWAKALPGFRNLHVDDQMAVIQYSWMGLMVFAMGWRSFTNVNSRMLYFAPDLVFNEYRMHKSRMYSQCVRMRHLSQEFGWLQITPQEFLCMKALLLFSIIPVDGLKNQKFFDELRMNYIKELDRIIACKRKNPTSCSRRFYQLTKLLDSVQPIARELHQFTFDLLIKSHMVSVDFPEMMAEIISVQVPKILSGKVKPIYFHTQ

[4] = molecular target: Serine/threonine-protein kinase 3 (Homo sapiens) (UniProt Q13188); conditions: Compound concentration 1000.0 nM
Sequence of Serine/threonine-protein kinase 3 (Homo sapiens) (Q13188 whole entry): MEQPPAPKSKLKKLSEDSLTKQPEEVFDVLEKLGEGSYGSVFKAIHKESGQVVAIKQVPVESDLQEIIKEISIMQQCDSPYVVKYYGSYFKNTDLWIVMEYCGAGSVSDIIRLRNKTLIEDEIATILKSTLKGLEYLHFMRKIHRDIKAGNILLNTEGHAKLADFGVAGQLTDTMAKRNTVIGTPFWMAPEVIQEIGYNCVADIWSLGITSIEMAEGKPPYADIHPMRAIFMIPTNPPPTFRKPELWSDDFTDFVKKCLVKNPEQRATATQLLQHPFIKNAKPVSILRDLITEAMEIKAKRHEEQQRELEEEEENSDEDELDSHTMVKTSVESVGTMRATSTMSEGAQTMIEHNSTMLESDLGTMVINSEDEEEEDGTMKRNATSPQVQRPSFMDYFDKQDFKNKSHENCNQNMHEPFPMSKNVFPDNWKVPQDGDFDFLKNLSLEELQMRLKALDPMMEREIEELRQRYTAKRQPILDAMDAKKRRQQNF

[5] = molecular target: Cyclin-dependent kinase-like 3 (Homo sapiens) (UniProt Q8IVW4); conditions: Compound concentration 1000.0 nM
[6] = molecular target: CREB-binding protein/Histone acetyltransferase p300 (Homo sapiens, UniProt Q09472+Q92793); test: Inhibition of H3K27Ac (DU-145); assay type: cell-based
[7] = molecular target: Cyclin-dependent kinase 18 (Homo sapiens) (UniProt Q07002); conditions: Compound concentration 1000.0 nM
Sequence of Cyclin-dependent kinase 18 (Homo sapiens) (Q07002 whole entry): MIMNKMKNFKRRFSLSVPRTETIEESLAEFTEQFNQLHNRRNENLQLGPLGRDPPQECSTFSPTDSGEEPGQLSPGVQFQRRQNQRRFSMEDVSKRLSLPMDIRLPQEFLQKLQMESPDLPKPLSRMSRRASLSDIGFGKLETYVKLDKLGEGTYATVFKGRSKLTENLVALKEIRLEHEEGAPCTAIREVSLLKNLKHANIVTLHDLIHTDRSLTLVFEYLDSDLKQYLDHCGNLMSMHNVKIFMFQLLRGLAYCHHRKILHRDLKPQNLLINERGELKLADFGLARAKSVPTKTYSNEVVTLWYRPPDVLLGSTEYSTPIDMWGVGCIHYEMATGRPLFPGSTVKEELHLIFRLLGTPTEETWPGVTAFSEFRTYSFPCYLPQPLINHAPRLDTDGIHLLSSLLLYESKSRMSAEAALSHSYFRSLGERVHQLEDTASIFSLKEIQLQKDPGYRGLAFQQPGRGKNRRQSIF

[8] = molecular target: Calcitonin-gene-related peptide receptor, CALCRL/RAMP1 (Homo sapiens) (UniProt O60894+Q16602); test: Calcitonin Gene-Related Peptide CGRP1 CEREP ligand profiling; assay type: protein-complex assay; conditions: Compound concentration 10.0 uM
[9] = molecular target: T1, Alpha-2A adrenergic receptor (Homo sapiens) (UniProt P08913); conditions: Compound concentration 10.0 uM
T1 sequence (whole entry): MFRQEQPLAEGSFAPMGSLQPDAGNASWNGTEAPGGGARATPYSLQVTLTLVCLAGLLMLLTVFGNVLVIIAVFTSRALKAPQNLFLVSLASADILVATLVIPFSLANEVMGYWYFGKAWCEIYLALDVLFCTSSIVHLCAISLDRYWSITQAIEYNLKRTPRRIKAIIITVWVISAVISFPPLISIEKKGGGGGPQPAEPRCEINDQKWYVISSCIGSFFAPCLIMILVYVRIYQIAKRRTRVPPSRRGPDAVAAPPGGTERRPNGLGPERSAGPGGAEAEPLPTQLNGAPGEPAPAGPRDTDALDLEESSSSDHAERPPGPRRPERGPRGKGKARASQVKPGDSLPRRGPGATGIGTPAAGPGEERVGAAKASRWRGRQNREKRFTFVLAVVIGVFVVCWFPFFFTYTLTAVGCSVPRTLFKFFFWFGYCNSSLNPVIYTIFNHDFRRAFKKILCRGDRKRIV

[10] = molecular target: Serine/threonine-protein kinase 32C (Homo sapiens) (UniProt Q86UX6); conditions: Compound concentration 1000.0 nM
Sequence of Serine/threonine-protein kinase 32C (Homo sapiens) (Q86UX6 whole entry): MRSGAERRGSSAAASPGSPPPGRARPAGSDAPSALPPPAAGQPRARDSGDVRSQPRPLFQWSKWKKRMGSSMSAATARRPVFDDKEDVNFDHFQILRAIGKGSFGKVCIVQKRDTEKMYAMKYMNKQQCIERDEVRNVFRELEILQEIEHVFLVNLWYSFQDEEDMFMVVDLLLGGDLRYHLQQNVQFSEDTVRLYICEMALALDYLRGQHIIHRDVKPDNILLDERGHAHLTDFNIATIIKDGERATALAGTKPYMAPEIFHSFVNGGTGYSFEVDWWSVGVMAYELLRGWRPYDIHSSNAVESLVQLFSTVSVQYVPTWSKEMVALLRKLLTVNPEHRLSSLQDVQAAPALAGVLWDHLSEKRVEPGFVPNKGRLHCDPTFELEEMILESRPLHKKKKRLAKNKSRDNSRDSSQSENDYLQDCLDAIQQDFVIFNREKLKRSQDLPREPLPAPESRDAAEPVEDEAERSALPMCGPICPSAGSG

[11] = molecular target: Protein kinase C iota type (Homo sapiens) (UniProt P41743); conditions: Compound concentration 1000.0 nM
[12] = test system: Receptor-type tyrosine-protein kinase FLT3 (Homo sapiens), P36888 [D835V]; conditions: Compound concentration 1000.0 nM
[13] = test system: Receptor-type tyrosine-protein kinase FLT3 (Homo sapiens), P36888 [UNDEFINED MUTATION]; conditions: Compound concentration 1000.0 nM
[14] = molecular target: T2, Alpha-1A adrenergic receptor (Homo sapiens) (UniProt P35348); conditions: Compound concentration 10.0 uM
T2 sequence (whole entry): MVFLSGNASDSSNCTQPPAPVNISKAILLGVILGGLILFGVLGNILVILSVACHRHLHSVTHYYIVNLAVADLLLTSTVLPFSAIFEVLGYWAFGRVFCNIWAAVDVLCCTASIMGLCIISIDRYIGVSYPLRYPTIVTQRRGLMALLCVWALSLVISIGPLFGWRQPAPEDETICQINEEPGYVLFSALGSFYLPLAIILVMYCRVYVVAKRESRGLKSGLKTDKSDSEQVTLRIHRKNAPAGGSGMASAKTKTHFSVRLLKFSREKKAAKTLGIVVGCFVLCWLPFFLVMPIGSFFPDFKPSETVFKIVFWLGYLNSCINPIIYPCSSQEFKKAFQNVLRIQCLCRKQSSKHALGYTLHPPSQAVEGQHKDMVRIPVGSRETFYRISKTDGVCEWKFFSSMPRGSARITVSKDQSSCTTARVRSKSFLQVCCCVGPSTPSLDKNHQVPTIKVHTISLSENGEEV

[15] = molecular target: Dual specificity mitogen-activated protein kinase kinase 7 (Homo sapiens) (UniProt O14733); conditions: Compound concentration 1000.0 nM
Sequence of Dual specificity mitogen-activated protein kinase kinase 7 (Homo sapiens) (O14733 whole entry): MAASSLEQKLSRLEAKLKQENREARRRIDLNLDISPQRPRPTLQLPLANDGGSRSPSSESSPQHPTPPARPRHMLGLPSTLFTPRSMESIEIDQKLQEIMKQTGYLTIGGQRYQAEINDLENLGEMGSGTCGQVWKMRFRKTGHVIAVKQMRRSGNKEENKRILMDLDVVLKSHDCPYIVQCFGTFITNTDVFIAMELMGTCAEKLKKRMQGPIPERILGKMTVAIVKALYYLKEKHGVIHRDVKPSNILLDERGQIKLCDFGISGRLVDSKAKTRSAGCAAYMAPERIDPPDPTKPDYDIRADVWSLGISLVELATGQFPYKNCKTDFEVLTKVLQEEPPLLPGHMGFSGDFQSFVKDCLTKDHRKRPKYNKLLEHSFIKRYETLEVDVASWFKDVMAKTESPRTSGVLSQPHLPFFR

OCI-Ly1 = test: OCI Ly1 cell line Proliferation assay; assay type: functional, Homo sapiens; conditions: Compound concentration 10 uM; time 3 day
NCI-H69 = test: H69 cell line Proliferation assay; assay type: functional, Homo sapiens; conditions: Compound concentration 10 uM; time 4 day
MOLT-4 = test: MOLT-4 cell line Proliferation assay; assay type: functional, Homo sapiens; conditions: Compound concentration 10 uM; time 3 day
G-361 = test: G361 cell line Proliferation assay; assay type: functional, Homo sapiens; conditions: Compound concentration 10 uM; time 5 day
HCC70 = test: HCC70 cell line Proliferation assay; assay type: functional, Homo sapiens; conditions: Compound concentration 10 uM; time 5 day
MDA-MB-453 = test: MDA_MB_453 cell line Proliferation assay; assay type: functional, Homo sapiens; conditions: Compound concentration 10 uM; time 5 day
DU-4475 = test: DU4475 cell line Proliferation assay; assay type: functional, Homo sapiens; conditions: Compound concentration 10 uM; time 5 day
MeWo = test: MeWo cell line Proliferation assay; assay type: functional, Homo sapiens; conditions: Compound concentration 10 uM; time 5 day
[16] = molecular target: 5-hydroxytryptamine receptor 7 (Homo sapiens) (UniProt P34969); conditions: Compound concentration 10.0 uM
Sequence of 5-hydroxytryptamine receptor 7 (Homo sapiens) (P34969 whole entry): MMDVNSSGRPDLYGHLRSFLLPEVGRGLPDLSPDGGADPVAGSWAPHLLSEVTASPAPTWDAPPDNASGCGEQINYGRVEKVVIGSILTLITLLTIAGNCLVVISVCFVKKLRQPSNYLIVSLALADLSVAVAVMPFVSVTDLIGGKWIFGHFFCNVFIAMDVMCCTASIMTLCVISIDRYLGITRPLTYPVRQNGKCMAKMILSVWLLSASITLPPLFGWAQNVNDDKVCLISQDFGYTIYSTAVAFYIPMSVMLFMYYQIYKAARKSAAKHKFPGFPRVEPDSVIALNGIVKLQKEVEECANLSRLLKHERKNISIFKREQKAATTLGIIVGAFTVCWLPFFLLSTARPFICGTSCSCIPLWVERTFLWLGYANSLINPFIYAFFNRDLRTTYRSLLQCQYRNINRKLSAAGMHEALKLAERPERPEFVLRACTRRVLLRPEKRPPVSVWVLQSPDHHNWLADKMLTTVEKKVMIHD

SU-DHL-16 = test: SuDHL16 cell line Proliferation assay; assay type: functional, Homo sapiens; conditions: Compound concentration 10 uM; time 3 day
CA46 = test: CA46 cell line Proliferation assay; assay type: functional, Homo sapiens; conditions: Compound concentration 10 uM; time 3 day
Jurkat = test: Jurkat cell line Proliferation assay; assay type: functional, Homo sapiens; conditions: Compound concentration 10 uM; time 3 day
OCI-Ly7 = test: OCI Ly7 cell line Proliferation assay; assay type: functional, Homo sapiens; conditions: Compound concentration 10 uM; time 3 day
LNCaP-Clone-FGC = test: LnCaP -FGC cell line Proliferation assay; assay type: functional, Homo sapiens; conditions: Compound concentration 10 uM; time 5 day
K562 = test: K562 cell line Proliferation assay; assay type: functional, Homo sapiens; conditions: Compound concentration 10 uM; time 3 day
OCI-AML2 = test: OCI-AML2 cell line Proliferation assay; assay type: functional, Homo sapiens; conditions: Compound concentration 10 uM; time 3 day
Kasumi 1 = test: Kasumi-1 cell line Proliferation assay; assay type: functional, Homo sapiens; conditions: Compound concentration 10 uM; time 3 day
SK-MEL-24 = test: SKMEL24 cell line Proliferation assay; assay type: functional, Homo sapiens; conditions: Compound concentration 10 uM; time 5 day
HT-144 = test: HT-144 cell line Proliferation assay; assay type: functional, Homo sapiens; conditions: Compound concentration 10 uM; time 5 day
[17] = molecular target: Sodium-dependent dopamine transporter (Homo sapiens, UniProt Q01959); test: GPCRScan assay: inhibition of DAT; set-up: radioligand conc. used [nm] 3.6 – 16.0, parental cells stable HEK
Sequence of Sodium-dependent dopamine transporter (Q01959 whole entry): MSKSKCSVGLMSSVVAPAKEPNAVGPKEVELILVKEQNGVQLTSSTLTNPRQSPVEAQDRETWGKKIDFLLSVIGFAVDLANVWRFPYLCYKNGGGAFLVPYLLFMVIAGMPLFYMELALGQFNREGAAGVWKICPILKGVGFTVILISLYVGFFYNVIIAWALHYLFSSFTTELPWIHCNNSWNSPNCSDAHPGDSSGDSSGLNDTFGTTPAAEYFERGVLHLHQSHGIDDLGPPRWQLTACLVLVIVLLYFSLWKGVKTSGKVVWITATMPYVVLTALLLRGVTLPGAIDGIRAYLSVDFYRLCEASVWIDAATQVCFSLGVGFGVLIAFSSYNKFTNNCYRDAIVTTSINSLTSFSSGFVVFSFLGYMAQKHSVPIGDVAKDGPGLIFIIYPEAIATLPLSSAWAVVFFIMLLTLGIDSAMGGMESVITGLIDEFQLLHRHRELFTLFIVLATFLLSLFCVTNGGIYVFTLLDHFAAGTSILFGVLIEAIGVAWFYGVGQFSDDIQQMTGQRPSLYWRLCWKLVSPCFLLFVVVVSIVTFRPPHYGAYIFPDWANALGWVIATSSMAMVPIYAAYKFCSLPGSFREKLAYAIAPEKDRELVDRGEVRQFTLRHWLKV

VCaP = test: VCaP cell line Proliferation assay; assay type: functional, Homo sapiens; conditions: Compound concentration 10 uM; time 5 day
CWR22R = test: 22Rv1 cell line Proliferation assay; assay type: functional, Homo sapiens; conditions: Compound concentration 10 uM; time 5 day
KMS-11 = test: KMS-11 cell line Proliferation assay; assay type: functional, Homo sapiens; conditions: Compound concentration 10 uM; time 3 day
NCI-H146 = test: H146 cell line Proliferation assay; assay type: functional, Homo sapiens; conditions: Compound concentration 10 uM; time 4 day
NCI-H661 = test: H661 cell line Proliferation assay; assay type: functional, Homo sapiens; conditions: Compound concentration 10 uM; time 3 day
KARPAS-299 = test: KARPAS-299 cell line Proliferation assay; assay type: functional, Homo sapiens; conditions: Compound concentration 10 uM; time 3 day
HCC1143 = test: HCC1143 cell line Proliferation assay; assay type: functional, Homo sapiens; conditions: Compound concentration 10 uM; time 5 day
WSU-NHL = test: WSU-NHL cell line Proliferation assay; assay type: functional, Homo sapiens; conditions: Compound concentration 10 uM; time 3 day
ULA = test: ULA cell line Proliferation assay; assay type: functional, Homo sapiens; conditions: Compound concentration 10 uM; time 3 day

Sequence of Substance-P receptor (Homo sapiens) (P25103 whole entry): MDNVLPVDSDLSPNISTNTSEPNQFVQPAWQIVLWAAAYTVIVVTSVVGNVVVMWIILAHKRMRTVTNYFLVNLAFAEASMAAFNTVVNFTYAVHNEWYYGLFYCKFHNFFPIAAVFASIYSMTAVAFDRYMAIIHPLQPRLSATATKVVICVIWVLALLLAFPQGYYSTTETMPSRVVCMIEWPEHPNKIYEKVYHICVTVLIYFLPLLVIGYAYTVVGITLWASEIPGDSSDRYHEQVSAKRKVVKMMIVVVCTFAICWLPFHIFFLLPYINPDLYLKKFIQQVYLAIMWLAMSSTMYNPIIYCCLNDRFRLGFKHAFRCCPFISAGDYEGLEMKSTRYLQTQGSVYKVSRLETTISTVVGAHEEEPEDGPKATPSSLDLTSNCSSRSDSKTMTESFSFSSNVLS
Sequence of Mitogen-activated protein kinase 11 (Homo sapiens) (Q15759 whole entry): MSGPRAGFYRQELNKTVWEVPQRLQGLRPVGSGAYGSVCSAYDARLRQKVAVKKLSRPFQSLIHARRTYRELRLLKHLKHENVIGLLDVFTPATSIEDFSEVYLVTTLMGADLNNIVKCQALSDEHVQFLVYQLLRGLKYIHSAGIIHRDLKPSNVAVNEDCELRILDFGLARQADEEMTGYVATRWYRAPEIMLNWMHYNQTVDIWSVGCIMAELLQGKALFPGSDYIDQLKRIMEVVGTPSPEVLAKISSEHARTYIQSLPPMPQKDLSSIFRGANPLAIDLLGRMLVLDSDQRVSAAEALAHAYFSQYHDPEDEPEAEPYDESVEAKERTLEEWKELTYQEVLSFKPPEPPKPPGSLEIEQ

SMILES: CNC(=O)Nc1ccc2c(c1)[C@@]1(CC2)OC(=O)N(CC(=O)N(Cc2ccc(F)cc2)[C@@H](C)C(F)(F)F)C1=O [A-486]
- inhibition [1]: 12%
- residual activity [2]: 100%
- inhibition [3]: 4%
- residual activity [4]: 97%
- residual activity [5]: 92%
- IC50 [6]: > 10 µM
- residual activity [7]: 100%
- inhibition [8]: -10%
- inhibition [9]: -1.4%
- residual activity [10]: 100%
- residual activity [11]: 91%
- residual activity [12]: 81%
- residual activity [13]: 99%
- inhibition [14]: 0.04%
- residual activity [15]: 85%

SMILES: CNC(=O)Nc1ccc2c(c1)CC[C@@]21OC(=O)N(CC(=O)N(Cc2ccc(F)cc2)[C@@H](C)C(F)(F)F)C1=O [A-485]
- Cell Proliferation EC50 (OCI-Ly1): 0.9405 µM
- Cell Proliferation EC50 (NCI-H69): >10 µM
- Cell Proliferation EC50 (MOLT-4): >10 µM
- inhibition [1]: 21%
- inhibition [3]: -4%
- Cell Proliferation EC50 (G-361): 3.768 µM
- Cell Proliferation EC50 (HCC70): >10 µM
- Cell Proliferation EC50 (MDA-MB-453): 1.8664 µM
- Cell Proliferation EC50 (DU-4475): 0.6683 µM
- residual activity [4]: 100%
- Cell Proliferation EC50 (MeWo): 2.427 µM
- inhibition [16]: 7.83%
- Cell Proliferation EC50 (SU-DHL-16): 0.7304 µM
- Cell Proliferation EC50 (CA46): 0.4809 µM
- Cell Proliferation EC50 (Jurkat): 4.03 µM
- Cell Proliferation EC50 (OCI-Ly7): 1.813 µM
- inhibition [9]: 3.72%
- Cell Proliferation EC50 (LNCaP-Clone-FGC): 0.26 µM
- Cell Proliferation EC50 (K562): 1.27 µM
- Cell Proliferation EC50 (OCI-AML2): 2.03 µM
- residual activity [10]: 88%
- Cell Proliferation EC50 (Kasumi 1): 0.285 µM
- Cell Proliferation EC50 (SK-MEL-24): >10 µM
- Cell Proliferation EC50 (HT-144): 3.077 µM
- Ki ([17]; read-out: Ki): 1.82 µM
- Ki ([17]; read-out: pKi (converted)): 1.78 µM
- Cell Proliferation EC50 (VCaP): 0.04 µM
- residual activity [12]: 76%
- Cell Proliferation EC50 (CWR22R): 0.32 µM
- Cell Proliferation EC50 (KMS-11): 0.241 µM
- Cell Proliferation EC50 (NCI-H146): 0.4 µM
- Cell Proliferation EC50 (NCI-H661): 7.664 µM
- Cell Proliferation EC50 (KARPAS-299): >10 µM
- Cell Proliferation EC50 (HCC1143): >10 µM
- Cell Proliferation EC50 (WSU-NHL): 1.063 µM
- Cell Proliferation EC50 (ULA): 0.5506 µM
- residual activity [15]: 97%
